Assay results from patent publication US20100093642A1, “NOVEL POLYPEPTIDES” (priority 2006, published 2010).
Residues, ends and D or L forms follow the SMILES beside them.

Key:
[1] = system: E. coli K-12; experiment: Bacterial cell viability, lux luminescence and OD600, with or without LPS; assay type: cell-based, Escherichia coli; conditions: co-incubation with 2.5 μM Aeromonas salmonicida LPS
Source text: To evaluate the effect of antimicrobial peptides on the viability of bacteria in a fast and reliable manner we used the lux CDABE operon from Photorhabdus luminescens as a reporter system in gram negative test bacteria and the modified luxABCDE operon in S. aureus (Vesterlund et al. 2004). Bacterial bioluminescence is directly dependent on metabolic activity, since reduction equivalents are needed to drive light emission. Any form of interruption of bacterial cell integrity or metabolism will therefore be detected as a reduction in light emission.
For the assay we used S. aureus (RN4220), E. coli K-12 and Salmonella enterica serovar typhimurium (ATCC 14028) transformed with the respective lux-operon containing plasmids (Vesterlund et al. 2004).
For each experiment a fresh colony was picked from Luria-Bertani plates supplemented with 10 μg/ml of erythromycin in case of S. aureus and with 100 μg/ml of ampicillin in case of E. coli and S. enterica serovar Typhimurium. Each colony was suspended in 5 ml of Müller-Hinton medium with appropriate antibiotics. The culture was incubated over night at 37° C. in a shaking incubator. The next morning 0.5 ml of this culture was transferred to 30 ml fresh MH medium in an Erlenmeyer-flask supplemented with the respective antibiotic. The flask was incubated (200 rpm shaking; 37° C.) until an OD600 of 0.5-0.8 was reached. The culture was then diluted to an OD600 of about 0.02-0.03 before transfer to the 96 well opaque plates with optical bottom (Packard ViewPlate) used for the assay.
The synthesized peptides were dissolved in water and aliquots frozen at −18° C. until use. Twofold dilutions of test peptides (final concentrations ranging from 0.31 to 80 μM) were directly prepared in 96 well microtiter plates in a volume of 10 μl in water. 90 μl is of indicator bacteria in MH medium were added directly to the prepared and pre-warmed (30 minutes at 37° C.) plate before starting the measurement in a Victor multiplate reader (Perkin Elmer) at 37° C. Both OD600 and luminescence in counts per second (cps) were followed over 5 hours in measuring intervals of 5 minutes. The plates where shaken before each measurement (20 sec.; 5 mm orbital shaking; 10 sec waiting). The growth curves and light emission curves were drawn and evaluated to determine the MIC for each indicator strain. The MIC was defined as the concentration of test compound causing more than 50% reduction in bioluminescence (cps) or optical density (OD600) after 5 hours, compared to the growth control. Cecropin P1 was used as positive control. […]
A second plate with an otherwise similar setup (as described for the luminescence assay in example 3) was prepared, but with addition of Aeromonas salmonicida LPS to the peptide dilutions before pre-warming. […]

[2] = system: human breast malignant carcinoma cell line (MT-1); assay type: cell-based; conditions: 24 h
Method: The cytotoxic effects of the peptides on different human tumour cells were measured using the MTT colorimetric assay (Mosmann, 1983). MIT (3-(4-5-dimethylthiazol-2-yl)-2,5-diphenyl tetrazolium bromide) is a soluble tetrazolium salt yielding a yellow solution when prepared in media or salt solutions lacking phenol red. Dissolved MIT is converted to an insoluble purple formazan by cleavage of the tetrazolium ring by dehydrogenase enzymes. This water insoluble formazan can be solubilized using isopropanol or other solvents and the dissolved material is measured spectrophotometrically. The absorbance was measured as a function of concentration of converted dye. […]
The tumour cell lines FemX, HT-29, MT-1 were maintained in RPMI-1640 medium supplemented with 10% heat inactivated FBS and 1% L-glutamine in a humidified atmosphere of 5% CO2 at 37° C. […] Cells to be used in the assay were grown to a minimum of 75% confluency, trypsinated and split to single cell suspension, counted and centrifuged at 1500 rpm for 10 min. […]
The cytotoxicity was measured using the MTT method (Mosmann, 1983), with minor modifications. […] The plate was placed on a shaker for 1 hour at room temperature and read spectrophotometrically at 590 nm in a microtiter plate reader (DTX880 Multimode Detector, Beckman Coulter). […]

| SMILES | MIC, more than 50% reduction in optical density, E. coli, P + LPS ([1]; OD600, 5 hours) | MIC, more than 50% reduction in luminescence, E. coli, P + LPS ([1]; luminescence (cps), 5 hours) | IC50 [2] |
| --- | --- | --- | --- |
| CC[C@H](C)[C@H](NC(=O)CNC(=O)[C@H](CO)NC(=O)[C@H](CCCCN)NC(=O)[C@@H](NC(=O)[C@H](C)NC(=O)[C@H](Cc1c[nH]cn1)NC(=O)[C@H](CO)NC(=O)[C@@H](NC(=O)[C@H](CCCCN)NC(=O)[C@H](Cc1c[nH]cn1)NC(=O)[C@H](Cc1ccccc1)NC(=O)[C@@H](NC(=O)[C@H](CCCCN)NC(=O)[C@H](CCCCN)NC(=O)[C@H](Cc1ccccc1)NC(=O)C(Cc1c[nH]c2ccc(Br)cc12)NC(=O)CN)[C@@H](C)O)C(C)C)C(C)C)C(=O)N[C@@H](Cc1c[nH]cn1)C(=O)N[C@@H](C)C(=O)O (stereo partly drawn) [P17 HC-Br (1-20)] (HELM PEPTIDE1{G.[O=C(C(Cc1c[nH]c2ccc(Br)cc12)N[*:1])[*:2]].F.K.K.T.F.H.K.V.S.H.A.V.K.S.G.I.H.A}$$$$V2.0; N-terminus and C-terminus assumed) | 40 µM | 20 µM |  |
| CC[C@H](C)[C@H](NC(=O)CNC(=O)[C@H](CO)NC(=O)[C@H](CCCCN)NC(=O)[C@@H](NC(=O)[C@H](C)NC(=O)[C@H](Cc1c[nH]cn1)NC(=O)[C@H](CO)NC(=O)[C@@H](NC(=O)[C@H](CCCCN)NC(=O)[C@H](Cc1c[nH]cn1)NC(=O)[C@H](Cc1ccccc1)NC(=O)[C@@H](NC(=O)[C@H](CCCCN)NC(=O)[C@H](CCCCN)NC(=O)[C@H](Cc1ccccc1)NC(=O)C(Cc1c[nH]c2ccc(Br)cc12)NC(=O)CN)[C@@H](C)O)C(C)C)C(C)C)C(=O)N[C@@H](Cc1c[nH]cn1)C(=O)N[C@@H](C)C(=O)NCC(=O)N[C@@H](CCC(N)=O)C(=O)N[C@@H](CCCNC(=N)N)C(=O)NCC(=O)N[C@@H](CS)C(=O)N[C@@H](CO)C(=O)N[C@@H](C)C(=O)N[C@@H](CC(C)C)C(=O)NCC(=O)N[C@@H](Cc1ccccc1)C(=O)O (stereo partly drawn) [P17 HC-Br] (HELM PEPTIDE1{G.[O=C(C(Cc1c[nH]c2ccc(Br)cc12)N[*:1])[*:2]].F.K.K.T.F.H.K.V.S.H.A.V.K.S.G.I.H.A.G.Q.R.G.C.S.A.L.G.F}$$$$V2.0) |  |  | 20 µM |
